Several values for one entry are separate records, joined by “and”; a condition that tells them apart may be missing. Identical values can stand only once.
B1: PEG-ASNase: asparaginase conjugated with polyethylene glycol (PEG); sold under the name ONCASPAR by Rhône-Poulenc Rorer (conjugate, UniProt P00805 23-348, looked up)
L-asparaginase 2: LPNITILATGGTIAGGGDSATKSNYTVGKVGVENLVNAVPQLKDIANVKGEQVVNIGSQDMNDNVWLTLAKKINTDCDKTDGFVITHGTDTMEETAYFLDLTVKCDKPVVMVGAMRPSTSMSADGPFNLYNAVVTAADKASANRGVLVVMNDTVLDGRDVTKTNTTDVATFKSVNYGPLGYIHNGKIDYQRTPARKHTSDTPFDVSKLNELPKVGIVYNYANASDLPAKALVDAGYDGIVSAGVGNGNLYKSVFDTLATAAKTGTAVVRSSRVPTGATTQDAEVDDAKYGFVASGTLNPQKARVLLQLALTQTKDPQQIQQIFNQY
modifications: PEG conjugate (pegaspargase)
notes: asparaginase conjugated with polyethylene glycol (PEG); sold under the name ONCASPAR by Rhône-Poulenc Rorer

Columns and labels:
[1] = system: HIV-RT levels of HIV-1 infected CEM/0 cell pellets; experiment: HIV-RT ELISA (Reverse Transcriptase Assay, non-radioactive) in cell pellets of HIV-1 infected CEM/0 T-cells; type: cell-based; set-up: % of control (of RANGE) / % of control (of MEAN): concentration or dose not given beside the values; details: for MEAN (HIV-RT): Table 5, three wells; for % of control (of RANGE): * single point determination; for MEAN X3 (HIV-RT): Table 9
Excerpt: The following is a general procedure for the HIV-reverse transcriptase assay:
The cell line used for these studies is CCRF/CEM/O, a human T-leukemic cell line. PEG-ASNase (ONCASPAR) is provided by Rhone-Poulenc Rorer. Saquinavir is commercially available. RPMI-1640 media (Irvine Scientific, Irvine, Calif.) is enriched with 10% Fetal Calf Serum (Gemini Biosource, Calabasas, Calif.), 5% 1M Hepes Buffer solution and 5% Non-essential amino acids (Irvine Scientific, Irvine, Calif.). The drug concentrations used are as follows:
Briefly, 2×10^6 cells/ml are stimulated with PHA+ media for 48 hours at 37° C. with 5% CO2. Also, the same number of cells are incubated in PHA(phytohemagglutinin) free media for 48 hours to serve as the negative control. At this point the cells are inoculated with the HIV-1 virus as per standard protocol. PEG-ASNase and/or Saquinavir are added to the cells in the appropriate concentrations (see above). The control cells are resuspended in drug-free media for the duration of the exposure which lasted seven days. At day five, two 1 ml aliquots of media are removed from the flasks and stored under liquid nitrogen. At day seven, two more 1 ml aliquots of media are removed from the flasks and stored under liquid nitrogen. In addition, the remaining cells are pelleted and stored at −80° C.
The samples produced from this experiment are itemized and then assayed for HIV-RT using the Reverse Transcriptase Assay, non-radioactive (Boehringer Mannheim). The standard curve is determined and the HIV-RT levels for the experimental samples are calculated.
This experiment is carried out using a similar procedure, and the same concentrations of materials as in Experiment 7, however the exposure of the HIV virus in T-cell pellets to PEG-ASNase and Saquinavir alone, and in combination is measured. It should be noted that “PEG” in Table 2a represents PEG-ASNase. […]

[2] = system: HIV-RNA in supernatant of HIV-1 infected CEM/0 T-cells; experiment: HIV-1 quantitative RNA assay (HIV-1 Monitor) in supernatants of CEM/0 T-cells; type: cell-based; set-up: inhibition of HIV-RNA in the supernatants in comparison to untreated control / % OF CONTROL / % control: concentration or dose not given beside the values; details: for N*: day 7 post Rx, PEG 0.400 IU/ml, SAQ 25 uM, AZT 1 uM, combinations PEG 0.233 IU/ml + SAQ 14.52 uM; for inhibition of HIV-RNA in the supernatants in comparison to untreated control: Experiment 6 text; for % control / MEAN N: Table 3; for Log 10 N: Table 3, per flask
Excerpt: It should be noted that “PEG” in Table 3 represents PEG-ASNase.
Materials and Methods: The cell line used for these studies is CEM/0, a human T-cell leukemic cell line. PEG-ASNase (ONCASPAR) is provided by Rhone-Poulenc Rorer. Saquinavin is commercially available. AZT is purchased from Sigma. MISID, a ribonucleotide reductase inhibitor, is as described in Nandy P, Lien E J, Avramis V I, Med. Chem. Res. 1995, 5:664-679. RPMI-1640 media (Irvine Scientific, Irvine, Calif.), is enriched with 10% Fetal Calf Serum (Gemini Biosource, Calabasas, Calif.), 5% 1M Hepes Buffer solution and 5% Non-essential amino acids (Irvine Scientific, Irvine, Calif.). The drug concentrations used are as follows:
Briefly, 3×10^6 cells/ml are stimulated with PHA+ media for 48 hours at 37° C. with 5% CO2. Also, the same number of cells are incubated in PHA free media for 48 hours to serve as the negative control. At this point the cells are inoculated with the HIV-1 virus as per standard protocol. Note that in this experiment, the HIV containing supernatant from the PHA-stimulated healthy human peripheral mononuclear cells (PBMC) is not removed from the PHA-stimulated CEM/0 cell culture. […] These virus particles are continuously released by already infected T-cells and/or lymph nodes of patients.
The experimental drugs are added to the cells in the appropriate concentrations at the same time as viral inoculation or 90 minutes after the viral incubation, a time sufficient for the T-cells to be infected and start producing new HIV-1 virus particles. The control cells are resuspended in drug-free media for the duration of the exposure which lasted seven days. Aliquots of media from the control flasks only are obtained on day 5 post Rx. At day seven, three 1 ml each, aliquots of media are removed from the flasks and stored under liquid nitrogen. In addition, the remaining cells are split into three and then pelleted and stored at −80° C. Supernatant specimens are obtained form these T-cell cultures and are frozen at −80° C. The samples produced from this experiment are itemized. The cell pellets of the cellular cultures (see Experiment 9) from the 90 minute viral incubation flasks are assayed for HIV-RNA quantitative assay using a kit for the assay, non-radioactive. […] The standard curve is determined and the HIV-RNA levels for the experimental samples are calculated and reported previously.
This experiment is carried out using a similar procedure, and the same concentrations of materials as in Experiment 10, however the exposure of HIV-RNA in T-cell supernatants to a combination of PEG-ASNase, Saquinavir, AZT and 3TC is measured. It should be noted that “PEG” in Table 10 represents PEG-ASNase.

[3] = Experiment 7, monotherapy at IC50 concentrations or combination
[4] = Experiment 10 (3TC) text, cell pellets
[5] = Table 9, per well, listed as SAQ
[6] = Table 2a, per flask, listed as PEG
[7] = Table 9, per well, listed as PEG

Molecule	% of control (of MEAN) ([1]; Table 5)	MEAN (HIV-RT) [1]	% of control (of RANGE) ([1]; Table 5)	MEAN X3 (HIV-RT) [1]	MEAN ([2]; Table 8)	% OF CONTROL ([2]; Table 8 and Experiment 10)	MEAN ([2]; Table 10)	% OF CONTROL ([2]; Table 10 and Experiment 11)	inhibition of HIV-RT [1, 3]	inhibition of HIV-RT [1, 4]	group mean (X2/X3) +/- S.D. ([1]; Table 2a)	inhibition of HIV-RNA in the supernatants in comparison to untreated control [2]	% control [2]	MEAN N [2]	other results
Cc1cn([C@H]2C[C@H](N=[N+]=[N-])[C@@H](CO)O2)c(=O)[nH]c1=O [AZT, zidovudine]	0%	0 pg/well	0%	0 ng/well	120691 copies/mL	61.74%	1437 copies/mL	32.48%							inhibition of HIV-RT ([1]; Experiment 7, cell pellets): most dramatic inhibition; HIV-RT ([1]; Table 5, per well, negative values set to 0): 0 pg/well; HIV-RT (negative values set to 0) ([1]; Table 9, per well): 0 ng/well; N* ([2]; Table 8, per specimen, 90 min viral inoculation, MISID 0.685 uM): 120981 copies/mL and 121288 copies/mL and 119805 copies/mL; N* ([2]; Table 10, per specimen, 3TC 1 uM): 1203 copies/mL and 1409 copies/mL and 1700 copies/mL
CC(C)(C)NC(=O)[C@@H]1C[C@@H]2CCCC[C@@H]2CN1C[C@@H](O)[C@H](Cc1ccccc1)NC(=O)[C@H](CC(N)=O)NC(=O)c1ccc2ccccc2n1 [Saquinavir]	12.7%	0.016 pg/well	12.7%	0.022 ng/well	124762 copies/mL	63.82%	2438 copies/mL	approximately 55%	83%	some inhibition	X2 = 31.10 +/− 4.67 pg/well, % CV = 15.01%	~68%	32.38%	42100 copies/mL	inhibition of HIV-RT in comparison with the control ([1]; Experiment 5a text, combination at synergistically reduced concentrations): approximately 15%; HIV-RT [1, 5]: 0.021 ng/well and 0.023 ng/well; HIV-RT (negative values set to 0) [1, 5]: 0.021 ng/well and 0.023 ng/well; Log 10 N ([2]; listed as SAQ): 4.61 and 4.60 and 4.66; N* ([2]; Table 8, per specimen, 90 min viral inoculation, MISID 0.685 uM, listed as SAQ): 122515 copies/mL and 128455 copies/mL and 123316 copies/mL; N* ([2]; Table 10, per specimen, 3TC 1 uM, listed as SAQ): 2816 copies/mL and 2375 copies/mL and 2122 copies/mL; % OF CONTROL ([2]; Table 10 and Experiment 11, listed as SAQ): 55.08%
B1	46.03%	0.058 pg/well	67.46%	0.159 ng/well	143761 copies/mL	73.54%	3233 copies/mL	~73%	54%	some inhibition	X3 = 68.43 +/− 11.26 pg/well, % CV = 16.45%	approximately 60%	40.78%	53020 copies/mL	inhibition of intracellular HIV-RT as compared to untreated control ([1]; Example 1, day 7 pellets, PEG-ASNase 0.4 IU/ml, Saquinavir 25 μM, combination 0.233 IU/ml + 14.5 μM): about 30%; effect in inhibiting HIV-RT ([1]; Experiment 5a, day 7): moderate effect; % cont. [1, 6]: 79.9% and 68.0% and 57.4%; HIV-RT [1, 6]: 0.330 pg/well and 0.281 pg/well and 0.237 pg/well; RANGE (HIV-RT, low or zero wells left out) ([1]; Table 5): 0.085 pg/well; HIV-RT [1, 7]: 0.201 ng/well and 0.142 ng/well and 0.133 ng/well; HIV-RT (negative values set to 0) [1, 7]: 0.201 ng/well and 0.142 ng/well and 0.133 ng/well; Log 10 N ([2]; listed as PEG): 4.71 and 4.72 and 4.73; N* ([2]; Table 8, per specimen, 90 min viral inoculation, MISID 0.685 uM, listed as PEG): 147041 copies/mL and 142575 copies/mL and 141667 copies/mL; N* ([2]; Table 10, per specimen, 3TC 1 uM, listed as PEG): 3132 copies/mL and 3048 copies/mL and 3520 copies/mL; % OF CONTROL ([2]; Table 10 and Experiment 11, listed as PEG): 73.06%
